The text below walks through data of patent publication US5084468A, “DC-88A derivatives” (Kyowa Hakko Kogyo Co., Ltd., priority 1988, dated 1992).

The subject of one data set is HeLa S3 cells. The data set can be described thus: Growth inhibition of HeLa S3 cells (neutral red, 72 hours). Type of data set: cell-based. As to conditions: Homo sapiens, read-out: IC50 (drug concentration which inhibited growth of HeLa S3 cells by 50%). The method, then: Test on Growth Inhibition of HeLa S3 cells
HeLa S3 cells diluted to 3 x 10^4 cells/ml with MEM medium containing 10% calf fetal serum and 2 mM glutamine were separately distributed by 0.1 ml each in each well of a 96 well microtiter plate.
After culturing at 37° C. overnight in a CO2 -incubator, 0.05 ml each of a test sample appropriately diluted with MEM medium was added to each well.
After culturing the cells for 72 hours in the CO2 -incubator, the culture supernatant was removed. After washing once with phosphate buffered physiological saline (PBS), 0.1 ml each of MEM medium containing 0.02% neutral red was added to each well and then cultured at 37° C. for an hour in the CO2 -incubator to stain the cells. After removing the culture supernatant, the cells were washed once with physiological saline, and the dye was extracted with 0.001N HCl/30% ethanol. Absorbance at […] of the extract was measured with a microplate reader. By comparing absorbance of extract of intact cells with that of the cells treated with a test compound in known concentrations, IC50, i.e. a drug concentration which inhibited growth of the cells by 50% was determined.

The next data set concerns dd strain male mice. The data set is classed as in vivo. The settings on record: intraperitoneal, 14 days observation. As to the method: Using dd strain male mice weighing 20±1 g, a test compound was intraperitoneally administered. MLD (the minimum lethal dose) was determined by observing the mortality for 14 days after administration.
In data set [1] the test system is lymphocytic leukemia P388. As to conditions: lymphocytic leukemia P388, etc.; cited from earlier work.
The test system of a further data set is various bacteria. As to conditions: cited from earlier work.
Setting [2] is: HeLa S3 cells, 72 hours, neutral red staining.

Like-named read-outs stand apart in the source and are kept apart here.

For the molecule `COC(=O)C1(C)NC2=C(C1=O)C13CC1CN(C(=O)c1cc4ccccc4[nH]1)C3=CC2=O` (stereo not shown) [Compound 1], the IC50 with HeLa S3 cells (setting [2]) was 1.1 nM.
Turning to `COC(=O)C1(C)Nc2c(O)cc3c(c2C1=O)C(CBr)CN3C(=O)c1cc2ccccc2[nH]1` (stereo not shown) [Compound 2], the IC50 in the data set on HeLa S3 cells (HeLa S3, 72 h) stood at 0.054 nM. For the same molecule, the “Acute Toxicity (MLD), minimum lethal dose” value (“Acute Toxicity (MLD)” for short) in the data set with dd strain male mice was determined as 0.25 mg/kg.
Regarding `COC(=O)C1(C)Nc2c(O)cc3c(c2C1=O)C(CBr)CN3C(=O)c1cc2cc(OC)ccc2[nH]1` (stereo not shown) [Compound 3], the “Acute Toxicity (MLD)” value in the data set with dd strain male mice came to 0.063 mg/kg.
With `COC(=O)C1(C)Nc2c(O)cc3c(c2C1=O)C(CBr)CN3C(=O)c1cc2ccccc2o1` (stereo not shown) [Compound 4], in the data set on HeLa S3 cells (HeLa S3, 72 h), the IC50 stood at 0.1 nM. Besides, the “Acute Toxicity (MLD)” value in the data set with dd strain male mice amounted to 0.25 mg/kg.
Consider `COC(=O)C1(C)Nc2c(O)cc3c(c2C1=O)C(CI)CN3C(=O)c1cc2cc(OC)c(OC)c(OC)c2[nH]1` (stereo not shown) [Compound 5], for which, in the data set on HeLa S3 cells (setting [2]), the IC50 worked out at 0.011 nM.
On the same count and under the same terms, to `COC(=O)C1(C)NC2=C(C1=O)C13CC1CN(C(=O)/C=C/c1ccccc1)C3=CC2=O` (stereo not shown) [Compound 6] belongs 2.3 nM.
With `COC(=O)C1(C)Nc2c(O)cc3c(c2C1=O)C(CBr)CN3C(=O)/C=C/c1ccccc1` (stereo not shown) [Compound 7], the IC50 with HeLa S3 cells (HeLa S3, 72 h) was 5.7 nM. In the data set with dd strain male mice, the “Acute Toxicity (MLD)” value is listed as 1.0 mg/kg.
`COC(=O)C1(C)NC2=C(C1=O)C13CC1CN(C(=O)Nc1ccccc1)C3=CC2=O` (stereo not shown) [Compound 8]: the IC50 in the data set on HeLa S3 cells (setting [2]) worked out at 3.2 nM.
The same measure, in the same setting: next, `COC(=O)C1(C)Nc2c(O)cc3c(c2C1=O)C(CBr)CN3C(=O)Nc1ccccc1` (stereo not shown) [Compound 9]: 2.6 nM.
Consider `COC(=O)C1(C)NC2=C(C1=O)C13CC1CN(C(=O)COc1ccccc1)C3=CC2=O` (stereo not shown) [Compound 14], for which the IC50 in the data set on HeLa S3 cells (setting [2]) worked out at 6.7 nM.
With `COC(=O)C1(C)Nc2c(O)cc3c(c2C1=O)C(CBr)CN3C(=O)COc1ccccc1` (stereo not shown) [Compound 15], the IC50 with HeLa S3 cells (HeLa S3, 72 h) is 3.1 nM. Moreover, the “Acute Toxicity (MLD)” value with dd strain male mice amounted to 4.0 mg/kg.
With `COC(=O)C1(C)NC2=C(C1=O)C13CC1CNC3=CC2=O` (stereo not shown) [Compound 18], the IC50 in the data set on HeLa S3 cells (setting [2]) came out at 3900 nM.
Turning to `COC(=O)C1(C)Nc2c(O)cc3c(c2C1=O)C(CBr)CN3C(=O)CNc1ccccc1` (stereo not shown) [Compound 19], the “Acute Toxicity (MLD)” value in the data set with dd strain male mice is 2.5 mg/kg.
Turning to `COC(=O)C1(C)Nc2c(O)cc3c(c2C1=O)C(CBr)CN3C(C)=O` (stereo not shown) [Compound 22], the “Acute Toxicity (MLD)” value in the data set with dd strain male mice amounted to 13 mg/kg.
On to `COC(=O)C1(C)NC2=C(C1=O)C13CC1CN(C(=O)c1cc4cc(OC)c(OC)cc4[nH]1)C3=CC2=O` (stereo not shown) [Compound 23], for which the IC50 with HeLa S3 cells (setting [2]) was less than 0.024 nM.
In the case of `COC(=O)C1(C)Nc2c(O)cc3c(c2C1=O)C(CBr)CN3C(=O)c1cc2cc(OC)c(OC)cc2[nH]1` (stereo not shown) [Compound 24], the IC50 in the data set on HeLa S3 cells (HeLa S3, 72 h) amounted to 0.024 nM. Also, the “Acute Toxicity (MLD)” value with dd strain male mice is listed as 0.25 mg/kg.
Regarding `COC(=O)C1(C)NC2=C(C1=O)C13CC1CN(C(=O)c1cc4ccccc4s1)C3=CC2=O` (stereo not shown) [Compound 25], the IC50 in the data set on HeLa S3 cells (setting [2]) stood at 7.6 nM.
For the molecule `COC(=O)C1(C)Nc2c(O)cc3c(c2C1=O)C(CBr)CN3C(=O)c1cc2ccccc2s1` (stereo not shown) [Compound 26], in the data set on dd strain male mice, the “Acute Toxicity (MLD)” value was 2.2 mg/kg.
Regarding `COC(=O)C1(C)NC2=C(C1=O)C13CC1CN(C(=O)/C=C/c1cccc(OC)c1)C3=CC2=O` (stereo not shown) [Compound 27], the IC50 in the data set on HeLa S3 cells (setting [2]) was found to be 0.6 nM.
As to `COC(=O)C1(C)Nc2c(O)cc3c(c2C1=O)C(CBr)CN3C(=O)/C=C/c1cccc(OC)c1` (stereo not shown) [Compound 28], the IC50 with HeLa S3 cells (HeLa S3, 72 h) was 2.5 nM. Besides, the “Acute Toxicity (MLD)” value in the data set on dd strain male mice was 0.16 mg/kg.
`COC(=O)C1(C)NC2=C(C1=O)C13CC1CN(C(=O)/C=C/c1ccc(OC)c(OC)c1)C3=CC2=O` (stereo not shown) [Compound 29]: in the data set with HeLa S3 cells (HeLa S3, 72 h), the IC50 is less than 0.024 nM.
Regarding `COC(=O)C1(C)Nc2c(O)cc3c(c2C1=O)C(CBr)CN3C(=O)/C=C/c1ccc(OC)c(OC)c1` (stereo not shown) [Compound 30], the IC50 in the data set on HeLa S3 cells (HeLa S3, 72 h) amounted to 0.034 nM. Moreover, in the data set with dd strain male mice, the “Acute Toxicity (MLD)” value is 0.082 mg/kg.
Turning to `COC(=O)C1(C)Nc2c(O)cc3c(c2C1=O)C(CBr)CN3C(=O)C1Cc2ccccc2N1` (stereo not shown) [Compound 31], the IC50 in the data set on HeLa S3 cells (setting [2]) is 81 nM. The “Acute Toxicity (MLD)” value in the data set on dd strain male mice is listed as 20 mg/kg.
Regarding `COC(=O)C1(C)NC2=C(C1=O)C13CC1CN(C(=O)c1cc4cc(NC(=O)OC(C)(C)C)ccc4[nH]1)C3=CC2=O` (stereo not shown) [Compound 32], the “Acute Toxicity (MLD)” value in the data set on dd strain male mice is on record as 0.25 mg/kg.
Turning to `COC(=O)C1(C)Nc2c(O)cc3c(c2C1=O)C(CBr)CN3C(=O)c1cc2cc(N)ccc2[nH]1` (stereo not shown) [Compound 33], in the data set with HeLa S3 cells (setting [2]), the IC50 was determined as 0.88 nM.
For `COC(=O)C1(C)Nc2c(O)cc3c(c2C1=O)C(CBr)CN3C(=O)c1cc2cc(OC)ccc2o1` (stereo not shown) [Compound 34], in the data set on HeLa S3 cells (HeLa S3, 72 h), the IC50 came to 0.05 nM. For the same molecule, the “Acute Toxicity (MLD)” value in the data set on dd strain male mice is 0.063 mg/kg.
In the same order, the values of `COC(=O)C1(C)Nc2c(O)cc3c(c2C1=O)C(CBr)CN3C(=O)/C=C/c1cccc(OC(C)=O)c1` (stereo not shown) [Compound 35] are 0.94 nM and 0.25 mg/kg.
For the molecule `COC(=O)C1(C)Nc2c(O)cc3c(c2C1=O)C(CBr)CN3C(=O)/C=C/c1ccc(NC(=O)OCc2ccccc2)cc1` (stereo not shown) [Compound 36], in the data set on dd strain male mice, the “Acute Toxicity (MLD)” value is on record as 1.3 mg/kg.
For the molecule `COC(=O)C1(C)Nc2c(O)cc3c(c2C1=O)C(CBr)CN3C(=O)/C=C/c1ccc(NC(C)=O)cc1` (stereo not shown) [Compound 37], the IC50 in the data set with HeLa S3 cells (setting [2]) was determined as 0.74 nM.
As to `COC(=O)C1(C)Nc2c(O)cc3c(c2C1=O)C(CBr)CN3C(=O)/C=C/c1ccc(OC)cc1` (stereo not shown) [Compound 38], the IC50 in the data set on HeLa S3 cells (HeLa S3, 72 h) came out at 0.035 nM. Moreover, the “Acute Toxicity (MLD)” value in the data set with dd strain male mice was 0.063 mg/kg.
On to `COC(=O)C1(C)Nc2c(O)cc3c(c2C1=O)C(CBr)CN3C(=O)CCc1ccc(OC)c(OC)c1` (stereo not shown) [Compound 39], for which the “Acute Toxicity (MLD)” value in the data set on dd strain male mice came out at 1.3 mg/kg.
For `COC(=O)C1(C)Nc2c(O)cc3c(c2C1=O)C(CBr)CN3C(=O)/C=C/c1ccc(N(C)C)cc1` (stereo not shown) [Compound 40], the IC50 in the data set with HeLa S3 cells (HeLa S3, 72 h) came to 0.085 nM. For the same molecule, the “Acute Toxicity (MLD)” value with dd strain male mice is 0.31 mg/kg.
With `COC(=O)C1(C)Nc2c(O)cc3c(c2C1=O)C(CBr)CN3C(=O)/C=C/c1ccc([N+](=O)[O-])cc1` (stereo not shown) [Compound 41], the “Acute Toxicity (MLD)” value in the data set with dd strain male mice amounted to 1.3 mg/kg.
As for `COC(=O)C1(C)Nc2c(O)cc3c(c2C1=O)C(CBr)CN3C(=O)/C=C/c1ccc(C=O)cc1` (stereo not shown) [Compound 42], in the data set with dd strain male mice, the “Acute Toxicity (MLD)” value is listed as 2.5 mg/kg.
As for `COC(=O)C1(C)Nc2c(O)cc3c(c2C1=O)C(CBr)CN3C(=O)c1cc2cc(NC(=O)c3cc4ccccc4[nH]3)ccc2[nH]1` (stereo not shown) [Compound 45], in the data set on HeLa S3 cells (HeLa S3, 72 h), the IC50 worked out at 1.1 nM. The “Acute Toxicity (MLD)” value with dd strain male mice stood at 0.63 mg/kg.
Take `COC(=O)C1(C)Nc2c(O)cc3c(c2C1=O)C(CBr)CN3C(=O)c1cc2cc(NC(=O)c3cc4ccccc4o3)ccc2[nH]1` (stereo not shown) [Compound 46]: in the data set with HeLa S3 cells (HeLa S3, 72 h), the IC50 was determined as 0.4 nM. Further, in the data set on dd strain male mice, the “Acute Toxicity (MLD)” value is on record as 0.63 mg/kg.
On to `COC(=O)C1(C)Nc2c(O)cc3c(c2C1=O)C(CBr)CN3C(=O)/C=C/c1ccc(N)cc1` (stereo not shown) [Compound 48], for which, in the data set with HeLa S3 cells (setting [2]), the IC50 was 1.2 nM.
With `COC(=O)C1(C)Nc2c(O)cc3c(c2C1=O)C(CBr)CN3C(=O)c1cc2cc(OC)c(OCc3ccccc3)c(OC)c2[nH]1` (stereo not shown) [Compound 55], the IC50 in the data set on HeLa S3 cells (HeLa S3, 72 h) was 0.52 nM. In addition, in the data set on dd strain male mice, the “Acute Toxicity (MLD)” value is 0.25 mg/kg.
As to `COC(=O)C1(C)NC2=C(C1=O)C13CC1CN(C(=O)c1cc4cc(OC)c(OC)c(OC)c4[nH]1)C3=CC2=O` (stereo not shown) [DC-88A], the “antitumor activity against lymphocytic leukemia P388” value in data set [1] is recorded as “antitumor activity against lymphocytic leukemia P388”. Moreover, the antibacterial activity entry in the data set on various bacteria is recorded as “antibacterial activity against various bacteria”.
